Earlier results in PMC10096175, “An In Vitro Antimicrobial, Anticancer and Antioxidant Activity of N–[(2–Arylmethylthio)phenylsulfonyl]cinnamamide Derivatives” (Molecules, 2023).
≈ marks a conversion by molar mass, not a printed value.

What was measured:
[1] = test system: human breast cancer MCF-7 cells; set-up: method as in PMID 30389289; details: cited from earlier work
[2] = test system: mouse melanoma B16–F10 cell line; set-up: method as in PMID 21783370; details: cited from earlier work
E. coli = test system: E. coli; set-up: method as in PMID 19231901; details: cited from earlier work
[3] = test system: quorum sensing system of C. violaceum; set-up: method as in doi:10.1016/j.ibiod.2018.06.003; details: at 1 mM; cited from earlier work
S. aureus = test system: S. aureus; set-up: method as in PMID 19231901; details: cited from earlier work

For `O=C(/C=C/c1ccc2c(c1)OCO2)NS(=O)(=O)c1ccccc1` [(E)–3–(benzo[d][1,3]dioxol–5–yl)–N–(phenylsulfonyl)acrylamide], the IC50 [1] is listed as 0.17 µg/mL (≈ 0.513 µM).
In the case of `O=C(/C=C/c1ccc(F)cc1)NS(=O)(=O)c1ccc(F)cc1` [(E)–3–(4–fluorophenyl)–N–(4-fluorophenylsulfonyl)acrylamide], the IC50 [2] is given as 0.8 µg/mL (≈ 2.47 µM).
In the case of `O=C(/C=C/c1ccc(Br)cc1)NS(=O)(=O)c1ccc(F)cc1` [(E)–3–(4–bromophenyl)–N–(4–fluorophenylsulfonyl)acrylamide], the IC50 [2] is listed as 1.2 µg/mL (≈ 3.12 µM).
In the case of `COC(=O)/C=C/c1ccccc1` [methyl trans-cinnamate], the “Concentration that completely inhibited growth” value (E. coli) is given as 6.2 mM, the Quorum sensing inhibition [3] is given as “completely inhibit” and the “Concentration that completely inhibited growth” value (S. aureus) is given as 3.1 mM.
